Results on one substance are retold here after PMC6271500, “Bowman-Birk Protease Inhibitor from Vigna unguiculata Seeds Enhances the Action of Bradykinin-Related Peptides” (Molecules, 2014).

The nature of data set [1]: Dynamic light scattering, free peptides and free BTCI. The class given is physicochemical. As to conditions: 25 µM, 2 mM Tris-HCl pH 7.4, 37 °C. The protocol: The hydrodynamic properties of the BTCI through the complex formation with Bk and analogues were monitored using DLS technique with laser source operated at 800 nm on the DynaPro LSR model (Wyatt Technology Corporation, Santa Barbara, CA, USA). The internal temperature was controlled by a Peltier system coupled to the detector. The Bk, Bk-related peptides, BTCI and BTCI-Bk, BTCI-Bk-related peptides complexes, were incubated for 30 minutes in 2 mM Tris-HCl pH 7.4 and then centrifuged at 5000 g and filtered ([…]) before the DLS experiments. The average of 100 acquisitions for each measure was considered for BTCI (25 µM) and synthetic Bk-related peptides (25 µM) separately and subsequently for the BTCI-Bk complexes (1:1). The formation of complexes was analyzed at 37 °C, considering the relationship of the scattered light intensity signal and the hydrodynamic diameter of the samples, using the Dynamics V6 program (Wyatt Technology Corporation).

The nature of data set [2]: Cardiovascular effects of infusion of Bk and Bk-related peptides with BTCI or vehicle in anesthetized rats. As to conditions: for aortic vasodilation (change in AVC) / change in mean arterial pressure (MAP) / renal vasodilation (change in RVC): from the baseline value, mean ± SEM, 6 experiments. It is filed as in vivo, male Wistar rats. As to the method:
All experiments were conducted on adult male Wistar rats (280–350 g). They were obtained from the central animal house of the Federal University of Goiás. Experimental procedures were designed with strict adherence to the National Health Institute Guidelines for Care and Use of Laboratory Animals as approved by the Ethics Committee, Federal University of Goiás (034/12).
On the day of experiments, the rats were anesthetized with halothane (2%–3% in 100% O2; Cristália Ltda, Itapira, SP, Brazil) prior to the catheterization of the right femoral vein and artery. After the catheter placement, the rats were removed from the halothane and the anesthesia was maintained with urethane (1.2 g·kg^−1 b.wt., i.v.; Sigma-Aldrich Co.). The trachea was cannulated to reduce airway resistance. The body temperature was kept at 37 ± 0.5 °C with a thermostatically controlled heated table.
Renal blood flow (RBF) and aortic blood flow (ABF) were measured with an ultrasonic transit-time flowmeter (Transonic Systems, Inc., Ithaca, NY, USA). Data were recorded continuously with an analog-to-digital converter (PowerLab 4/25, ML845, AD Instruments, Bella Vista, Australia). Mean arterial pressure (MAP) was determined from the pulsatile signal. Aortic vascular conductance (AVC) and renal vascular conductance (RVC) were calculated by a ratio of ABF and RBF divided by MAP, and were expressed as percentage of baseline. Increasing doses of BTCI (0.3, 3, 30 and 300 µg·kg^−1, i.v.) were infused.
Results are presented as means ± S.E.M. The effects of infusion of Bk, Bk-related peptides and BTCI on cardiovascular parameters were analyzed by one-way ANOVA. […] A value of Student’s t-test p < 0.05 was considered to denote a significant difference.

[3] abbreviates: peptide 120 µg·kg^−1 + BTCI 3 µg·kg^−1, i.v.
Setting [4] is: peptide 120 µg·kg^−1 i.v. + BTCI 3 µg·kg^−1 i.v.
[5] abbreviates: peptide 120 µg·kg^−1 i.v., without BTCI.

Take [Val]^1[Thr]^6-bradykinyl-Gln-Ser [Bk2]: in data set [1], the “polydispersity, peptide” value is on record as “lower than 0.15”. Besides, in data set [2] (setting [3]), the “effect of association with BTCI on aortic vasodilation” value is listed as “potentiated” and the “effect of association with BTCI on renal vasodilation” value was “potentiated renal”. Moreover, in data set [2] (setting [4]), the “aortic vasodilation (change in AVC)” value is 28% ± 2.6%, the “change in mean arterial pressure (MAP)” value is recorded as −12 ± 2.7 mmHg and the “renal vasodilation (change in RVC)” value is listed as 29% ± 4.9%. In data set [2] (setting [5]), the “aortic vasodilation (change in AVC)” value is 19% ± 2.7%, the “change in mean arterial pressure (MAP)” value was −12 ± 1.2 mmHg and the “renal vasodilation (change in RVC)” value was 19% ± 3.0%.
